{"source": "patent US20240400553A1", "about": "“AMINE BASED MATRIPTASE 2 INHIBITORS AND USES THEREOF” (Disc Medicine, Inc., priority 2023, published 2024)"}
{"biological_target": "T1, Human Recombinant Matriptase 2 (Homo sapiens, UniProt Q8IU80)", "T1 construct": "made in house", "T1 sequence (Q8IU80 1-811)": "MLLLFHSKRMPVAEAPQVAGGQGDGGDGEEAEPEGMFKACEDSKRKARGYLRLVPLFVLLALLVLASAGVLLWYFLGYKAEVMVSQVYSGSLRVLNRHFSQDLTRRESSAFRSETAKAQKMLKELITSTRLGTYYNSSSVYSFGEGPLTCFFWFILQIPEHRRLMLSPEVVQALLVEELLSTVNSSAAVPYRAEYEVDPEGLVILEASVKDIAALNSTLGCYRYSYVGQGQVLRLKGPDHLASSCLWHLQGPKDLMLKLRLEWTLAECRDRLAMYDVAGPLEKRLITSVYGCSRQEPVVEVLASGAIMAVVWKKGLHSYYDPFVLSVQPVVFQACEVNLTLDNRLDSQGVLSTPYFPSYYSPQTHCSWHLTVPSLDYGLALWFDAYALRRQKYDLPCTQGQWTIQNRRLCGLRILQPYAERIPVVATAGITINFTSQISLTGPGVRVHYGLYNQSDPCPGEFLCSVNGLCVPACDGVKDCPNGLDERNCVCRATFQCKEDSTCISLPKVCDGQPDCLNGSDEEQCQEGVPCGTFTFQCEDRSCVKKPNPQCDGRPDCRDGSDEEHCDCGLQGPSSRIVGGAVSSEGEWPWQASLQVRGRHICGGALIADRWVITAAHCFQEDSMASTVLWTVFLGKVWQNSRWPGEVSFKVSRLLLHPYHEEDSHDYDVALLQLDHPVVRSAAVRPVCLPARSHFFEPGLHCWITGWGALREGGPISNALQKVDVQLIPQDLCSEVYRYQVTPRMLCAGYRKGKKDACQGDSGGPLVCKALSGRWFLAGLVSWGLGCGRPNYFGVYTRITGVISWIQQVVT", "assay": "Matriptase 2 inhibition, fluorescence based assay (Method I)", "assay_type": "biochemical", "conditions": "Table A; Ki of Matriptase-2; read-out: Mat-2 Ki", "method_in_brief": "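Fluorogenic readout (Ex 360/Em 480 nm) taken 60 min after adding 62 μM Boc-Gln-Ala-Arg-AMC, following 30-min enzyme–compound preincubation at 25 °C. Conditions: 3.5 nM in-house enzyme, pH 7.5 Tris/NaCl/gelatin buffer, 1% DMSO; percent inhibition versus concentration fitted by variable-slope sigmoidal regression.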", "units": {"Ki": "nM"}}
{"compound": "CC(C)(C)n1nccc1COC(=O)c1cc2ccc(CN)nc2n1Cc1cc(NS(=O)(=O)Cc2ccccc2)cc2ccccc12", "note": "[Compound 110]", "Ki": "100 to 500"}
{"compound": "CC(C)n1nccc1COC(=O)c1cc2ccc(CN)nc2n1Cc1cc(NS(=O)(=O)Cc2ccccc2)cc2ccccc12", "note": "[Compound 111, [1-(propan-2-yl)-1H-pyrazol-5-yl]methyl 6-(aminomethyl)-1-{[3-(phenylmethanesulfon-amido)naphthalen-1-yl]-methyl}-1H-pyrrolo-[2,3-b]pyridine-2-car-boxylate]", "Ki": "100 to 500"}
{"compound": "CC(C)OC(=O)c1cc2ccc(CN)nc2n1Cc1cc(NS(=O)(=O)Cc2ccccc2)cc2ccccc12", "note": "[Compound 112, propan-2-yl 6-(amino-methyl)-1-{[3-(phenyl-methanesulfonamido)-naphthalen-1-yl]methyl}-1H-pyrrolo[2,3-b]pyr-idine-2-carboxylate]", "Ki": "500 to 3000"}
{"compound": "NCc1ccc2cc(C(=O)O)n(Cc3cc(NS(=O)(=O)C4(c5ccccc5)CC4)cc4ccccc34)c2n1", "note": "[Compound 113, 6-(aminomethyl)-1-{[3-(1-phenylcyclopropane-sulfonamido)naphthalen-1-yl]methyl}-1H-pyr-rolo[2,3-b]pyridine-2-carboxylic acid]", "Ki": "500 to 3000"}
{"compound": "NCc1ccc2cc(C(=O)OCCn3cccc3)n(Cc3cc(NS(=O)(=O)Cc4ccccc4)cc4ccccc34)c2n1", "note": "[Compound 114, 2-(1H-pyrrol-1-yl)ethyl 6-(aminomethyl)-1-{[3-(phenylmethanesulfon-amido)naphthalen-1-yl]-methyl}-1H-pyrrolo[2,3-b]pyridine-2-carboxylate]", "Ki": "500 to 3000"}
{"compound": "CCOC(=O)c1cc2ccc(CN)nc2n1Cc1cc(NS(=O)(=O)Cc2ccccc2)cc2ccccc12", "note": "[Compound 115, ethyl 6-(aminomethyl)-1-{[3-(phenylmethanesul-fonamido)naphthalen-1-yl]methyl}-1H-pyrrolo-[2,3-b]pyridine-2-car-boxylate]", "Ki": "500 to 3000"}
{"compound": "COC(=O)c1cc2ccc(CN)nc2n1Cc1cc(NS(=O)(=O)Cc2ccccc2)cc2ccccc12", "note": "[Compound 116, methyl 6-(aminomethyl)-1-{[3-(phenylmethane-sulfonamido)naphthalen-1-yl]methyl}-1H-pyrrolo-[2,3-b]pyridine-2-car-boxylate]", "Ki": "500 to 3000"}
{"compound": "NCc1ccc2cc(C(=O)OCC34CC(F)(C3)C4)n(Cc3cc(NS(=O)(=O)Cc4ccccc4)cc4ccccc34)c2n1", "note": "[Compound 117, {3-fluorobicyclo[1.1.1]-pentan-1-yl}methyl 6-(aminomethyl)-1-{[3-(phenylmethanesulfon-amido)naphthalen-1-yl]-methyl}-1H-pyrrolo[2,3-b]pyridine-2-carboxylate]", "Ki": "500 to 3000"}
{"compound": "NCc1ccc2cc(C(=O)OCC3CC3)n(Cc3cc(NS(=O)(=O)Cc4ccccc4)cc4ccccc34)c2n1", "note": "[Compound 120, cyclopropylmethyl 6-(aminomethyl)-1-{[3-(phenylmethanesulfon-amido)naphthalen-1-yl]-methyl}-1H-pyrrolo[2,3-b]pyridine-2-carboxylate]", "Ki": "500 to 3000"}
{"compound": "CC(C)COC(=O)c1cc2ccc(CN)nc2n1Cc1cc(NS(=O)(=O)Cc2ccccc2)cc2ccccc12", "note": "[Compound 121, 2-methylpropyl 6-(aminomethyl)-1-{[3-(phenylmethanesulfon-amido)naphthalen-1-yl]-methyl}-1H-pyrrolo[2,3-b]pyridine-2-carboxylate]", "Ki": "500 to 3000"}
{"compound": "CN(CCOC(=O)c1cc2ccc(CN)nc2n1Cc1cc(NS(=O)(=O)Cc2ccccc2)cc2ccccc12)C(=O)OC(C)(C)C", "note": "[Compound 122, 2-{[(tert-butoxy)carbon-yl](methyl)amino}ethyl 6-(aminomethyl)-1-{[3-(phenylmethanesulfon-amido)naphthalen-1-yl]-methyl}-1H-pyrrolo[2,3-b]pyridine-2-carboxylate]", "Ki": "500 to 3000"}
{"compound": "NCc1ccc2cc(C(=O)OCc3ccccc3)n(Cc3cc(NS(=O)(=O)Cc4ccccc4)cc4ccccc34)c2n1", "note": "[Compound 123, benzyl 6-(aminomethyl)-1-{[3-(phenylmethane-sulfonamido)naphthalen-1-yl]methyl}-1H-pyr-rolo[2,3-b]pyridine-2-carboxylate]", "Ki": "500 to 3000"}
{"compound": "N#Cc1ccc(OC(=O)c2cc3ccc(CN)nc3n2Cc2cc(NS(=O)(=O)Cc3ccccc3)cc3ccccc23)cc1", "note": "[Compound 125, 4-cyanophenyl 6-(aminomethyl)-1-{[3-(phenylmethanesulfon-amido)naphthalen-1-yl]-methyl}-1H-pyrrolo-[2,3-b]pyridine-2-car-boxylate]", "Ki": "500 to 3000"}
{"compound": "CN(CCOC(=O)c1cc2ccc(CN)nc2n1Cc1cc(NS(=O)(=O)Cc2ccccc2)cc2ccccc12)c1ccccc1", "note": "[Compound 126, 2-[methyl(phenyl)-amino]ethyl 6-(amino-methyl)-1-{[3-(phenyl-methanesulfonamido)-naphthalen-1-yl]methyl}-1H-pyrrolo[2,3-b]pyr-idine-2-carboxylate]", "Ki": "500 to 3000"}
{"compound": "NCc1ccc2cc(C(=O)OCCN3CCOC3=O)n(Cc3cc(NS(=O)(=O)Cc4ccccc4)cc4ccccc34)c2n1", "note": "[Compound 130]", "Ki": "100 to 500"}
{"compound": "CC(C)N(CCOC(=O)c1cc2ccc(CN)nc2n1Cc1cc(NS(=O)(=O)Cc2ccccc2)cc2ccccc12)C(C)C", "note": "[Compound 131, 2-[bis(propan-2-yl)-amino]ethyl 6-(amino-methyl)-1-{[3-(phenyl-methanesulfonamido)-naphthalen-1-yl]meth-yl}-1H-pyrrolo[2,3-b]-pyridine-2-carboxylate]", "Ki": "100 to 500"}
{"compound": "NCc1ccc2cc(C(=O)OCCCN3CCOCC3)n(Cc3cc(NS(=O)(=O)Cc4ccccc4)cc4ccccc34)c2n1", "note": "[Compound 133, 3-(morpholin-4-yl)prop-yl 6-(aminomethyl)-1-{[3-(phenylmethanesul-fonamido)naphthalen-1-ylmethyl}-1H-pyrrolo-[2,3-b]pyridine-2-car-boxylate]", "Ki": "100 to 500"}
{"compound": "CN(CCOC(=O)c1cc2ccc(CN)nc2n1Cc1cc(NS(=O)(=O)Cc2ccccc2)cc2ccccc12)Cc1ccccc1", "note": "[Compound 134, 2-[benzyl(methyl)-amino]ethyl 6-(amino-methyl)-1-{[3-(phenyl-methanesulfonamido)-naphthalen-1-yl]methyl}-1H-pyrrolo[2,3-b]pyr-idine-2-carboxylate]", "Ki": "100 to 500"}
{"compound": "CN1CCN(CCOC(=O)c2cc3ccc(CN)nc3n2Cc2cc(NS(=O)(=O)Cc3ccccc3)cc3ccccc23)CC1", "note": "[Compound 135, 2-(4-methylpiperazin-1-ylethyl 6-(aminomethyl)-1-{[3-(phenylmethane-sulfonamido)naphthalen-1-yl]methyl}-1H-pyrrolo-[2,3-b]pyridine-2-car-boxylate]", "Ki": "≤ 100"}
{"compound": "NCc1ccc2cc(C(=O)OCCN(Cc3ccccc3)CC3CC3)n(Cc3cc(NS(=O)(=O)Cc4ccccc4)cc4ccccc34)c2n1", "note": "[Compound 136, 2-[benzyl(cyclopropyl-methyl)amino]ethyl 6-(aminomethyl)-1-{[3-(phenylmethanesulfon-amido)naphthalen-1-yl]-methyl}-1H-pyrrolo[2,3-b]pyridine-2-carboxylate]", "Ki": "500 to 3000"}
{"compound": "Cn1ccnc1COC(=O)c1cc2ccc(CN)nc2n1Cc1cc(NS(=O)(=O)Cc2ccccc2)cc2ccccc12", "note": "[Compound 137, (1-methyl-1H-imidazol-2-yl)methyl 6-(amino-methyl)-1-{[3-(phenyl-methanesulfonamido)-naphthalen-1-yl]methyl}-1H-pyrrolo[2,3-b]pyr-idine-2-carboxylate]", "Ki": "≤ 100"}
